One assay relates to MDA-MB-231. The experiment in a line: Antiproliferative activity against human MDA-MB-231 cells after 48 hrs by MTT assay. The note with it: MDA-MB-231, 48 h. Format: functional, cell-based.
The test system of assay [1] is HCT-116. As to the kind of experiment: cells. Conditions: Homo sapiens, HCT-116, 48 h.
A further assay relates to MCF7. The experiment in a line: cells. The note with it: Homo sapiens, MCF7, 48 h.
The subject of assay [2] is HeLa. As to the kind of experiment: cells. Conditions: Homo sapiens, 48 h.
For another assay, the system named is HEK293. The experiment in a line: Antiproliferative activity against HEK293 cells after 48 hrs by MTT assay. The note with it: Homo sapiens, HEK293, 48 h. It is filed as cell-based. On the technique in general: Formazan colour is commonly taken as a measure of viable cells.
A short description of assay [3]: Inhibition of pig brain tubulin polymerization by spectrophotometric analysis. Details: species or system Sus scrofa.
The species entered for a further assay is Sus scrofa. As to the kind of experiment: Inhibition of pig brain tubulin polymerization at 10 uM by spectrophotometric analysis.
The subject of assay [4] is HCT-116. As to the kind of experiment: Potency index, ratio of CA-4 IC50 to compound IC50 for human HCT116 cells. Format: functional.
For assay [5], the system named is HeLa. The experiment in a line: Cell cycle arrest in human HeLa cells assessed as accumulation at G0/G1 phase at 1.25 uM after 12 hrs by FACS analysis (reference value: 61.74%). It is filed as functional. On the technique in general: In flow cytometry, cells or beads pass a laser one at a time.
Assay [6] concerns HeLa. The experiment in a line: Cell cycle arrest in human HeLa cells assessed as accumulation at G2/M phase at 1.25 uM after 12 hrs by FACS analysis (reference value: 9.12%). Format: functional.
The test system of assay [7] is HeLa. As to the kind of experiment: Cell cycle arrest in human HeLa cells assessed as accumulation at G0/G1 phase at 5 uM after 12 hrs by FACS analysis (reference value: 61.74%). Format: functional.
Assay [8] deals with HeLa. As to the kind of experiment: Cell cycle arrest in human HeLa cells assessed as accumulation at G2/M phase at 5 uM after 12 hrs by FACS analysis (reference value: 9.12%). It is filed as functional.
Assay [9] concerns HeLa. As to the kind of experiment: Cell cycle arrest in human HeLa cells assessed as accumulation at S phase at 2.5 uM after 12 hrs by FACS analysis (reference value: 29.14%). It is filed as functional.
For assay [10], the system named is HeLa. As to the kind of experiment: Cell cycle arrest in human HeLa cells assessed as accumulation at S phase at 5 uM after 12 hrs by FACS analysis (reference value: 29.14%). It is filed as functional.
The subject of assay [11] is HeLa. The experiment in a line: Cell cycle arrest in human HeLa cells assessed as accumulation at S phase at 1.25 uM after 12 hrs by FACS analysis (reference value: 29.14%). It is filed as functional.
In assay [12] the test system is HeLa. The experiment in a line: Cell cycle arrest in human HeLa cells assessed as accumulation at G2/M phase after 12 hrs by FACS analysis. Format: functional, cell-based.
Assay [13] relates to HeLa. As to the kind of experiment: Cell cycle arrest in human HeLa cells assessed as accumulation at G0/G1 phase at 2.5 uM after 12 hrs by FACS analysis (reference value: 61.74%). Format: functional.
Assay [14] has as its system HeLa. As to the kind of experiment: Cell cycle arrest in human HeLa cells assessed as accumulation at G2/M phase at 2.5 uM after 12 hrs by FACS analysis (reference value: 9.12%). Format: functional.

Structures are written as SMILES. pIC50: −log10 of the molar value. Bounds are passed on as bounds.

`Cc1ccc2c(Nc3nc(N4CCOCC4)ncc3[N+](=O)[O-])c(C(=O)c3ccc(Cl)cc3)[nH]c2c1`: the pIC50 (in general, the negative decadic logarithm of the IC50, by convention in mol/L) in the assay on MDA-MB-231 is under 4.00; in the assay on HCT-116 [1] it was under 4.00; in the assay with MCF7, 4.01; in the assay with HeLa [2] it was under 4.00.

Consider `O=C(c1ccc(-c2ccccc2)cc1)c1[nH]c2ccccc2c1Nc1nc(N2CCOCC2)ncc1[N+](=O)[O-]`, for which the pIC50 was 4.10 in the assay with HEK293; 4.99 in the assay with MDA-MB-231; 5.02 in the assay on HCT-116 [1]; 6.54 with MCF7; 4.71 in [3]; 5.39 in the assay with HeLa [2]. Further, the inhibition (as a rule, the percentage by which the read-out fell short of the control) in the assay filed under Sus scrofa amounted to 42%.

In the case of `O=C(c1ccc(Br)cc1)c1[nH]c2ccccc2c1Nc1nc(N2CCSCC2)ncc1[N+](=O)[O-]`, the pIC50 with MDA-MB-231, in the assay with HCT-116 [1], in the assay on MCF7 and with HeLa [2] was under 4.00 each time.

Take `Cc1ccc2c(Nc3nc(N4CCOCC4)ncc3[N+](=O)[O-])c(C(=O)c3cccs3)[nH]c2c1`: the pIC50 was 4.03 in the assay with MDA-MB-231, 4.41 with HCT-116 [1], under 4.00 in the assay with MCF7 and under 4.00 in the assay with HeLa [2].

In the case of `O=C(c1[nH]c2ccccc2c1Nc1nc(N2CCOCC2)ncc1[N+](=O)[O-])C1CC1`, the negative-log IC50 (pIC50) with MDA-MB-231 is 4.05; in the assay on HCT-116 [1], 4.13; in the assay on MCF7 it was 4.05; in the assay with HeLa [2] it was 4.30.

On to `COc1ccc(/C=C\c2cc(OC)c(OC)c(OC)c2)cc1O` [COMBRETASTATIN A4], for which the pIC50 was 3.57 in the assay with MDA-MB-231, 5.21 in the assay with HCT-116 [1], 7.39 with MCF7 and 6.64 in the assay on HeLa [2]. In the assay listed under Sus scrofa, this compound yielded an inhibition of 80%.

As to `COc1ccc(C(=O)c2[nH]c3cc(C)ccc3c2Nc2nc(N3CCOCC3)ncc2[N+](=O)[O-])cc1`, the pIC50 with MDA-MB-231 was 4.05; with HCT-116 [1], 4.36; with MCF7, under 4.00; in the assay on HeLa [2] it was 4.04.

`COc1ccc(C(=O)c2[nH]c3ccccc3c2Nc2nc(N3CCSCC3)ncc2[N+](=O)[O-])cc1`: the pIC50 with MDA-MB-231, with HCT-116 [1], in the assay with MCF7 and in the assay on HeLa [2] was under 4.00 in each case.

In the case of `O=C(c1ccc(-c2ccccc2)cc1)c1[nH]c2cc(Cl)ccc2c1Nc1nc(N2CCOCC2)ncc1[N+](=O)[O-]`, the pIC50 was 4.23 in the assay with MDA-MB-231, under 4.00 in the assay on HCT-116 [1], 4.37 in the assay on MCF7 and 4.78 with HeLa [2].

Regarding `O=C(c1ccccc1)c1[nH]c2cc(Cl)ccc2c1Nc1nc(N2CCOCC2)ncc1[N+](=O)[O-]`, the pIC50 with MDA-MB-231, in the assay with HCT-116 [1], in the assay on MCF7 and in the assay on HeLa [2] was under 4.00 throughout. In the assay filed under Sus scrofa, this compound registered an inhibition of 9%.

As for `CCOC(=O)n1c(C(=O)c2ccccc2)c(Nc2nc(N3CCOCC3)ncc2[N+](=O)[O-])c2ccc(Cl)cc21`, the pIC50 is 4.45 in the assay with MDA-MB-231, 4.09 in the assay on HCT-116 [1], 4.11 in the assay with MCF7 and under 4.00 with HeLa [2].

In the case of `O=C(c1cccs1)c1[nH]c2cc(Cl)ccc2c1Nc1nc(N2CCOCC2)ncc1[N+](=O)[O-]`, the pIC50 was under 4.00 with MDA-MB-231, under 4.00 with HCT-116 [1], 4.16 in the assay with MCF7 and 4.02 in the assay on HeLa [2]. The same compound gave an inhibition in the assay listed under Sus scrofa of 19%.

Regarding `COc1ccc(C(=O)c2[nH]c3ccccc3c2Nc2nc(N3CCOCC3)ncc2[N+](=O)[O-])cc1`, the negative logarithm of the IC50 (pIC50) in the assay on HEK293 was 4.83; with MDA-MB-231 it was 5.06; in the assay on HCT-116 [1], 5.19; in the assay on MCF7, 4.24; in the assay with HeLa [2] it was 5.36. Moreover, the inhibition in the assay listed under Sus scrofa stood at 14%.

Take `O=C(c1ccccc1)c1[nH]c2ccccc2c1Nc1nc(N2CCSCC2)ncc1[N+](=O)[O-]`: the pIC50 with MDA-MB-231, in the assay on HCT-116 [1], in the assay with MCF7 and with HeLa [2] was under 4.00 each time. Moreover, in the assay listed under Sus scrofa, the inhibition was 2%.

`Cc1ccc2c(Nc3nc(N4CCOCC4)ncc3[N+](=O)[O-])c(C(=O)c3ccccc3)[nH]c2c1`: the pIC50 is 4.12 in the assay with MDA-MB-231, 4.09 in the assay with HCT-116 [1], 4.25 in the assay with MCF7 and 4.33 in the assay on HeLa [2].

Consider `Cc1ccc2c(Nc3nc(N4CCOCC4)ncc3[N+](=O)[O-])c(C(=O)c3ccc(-c4ccccc4)cc3)[nH]c2c1`, for which the pIC50 was under 4.00 with MDA-MB-231, under 4.00 in the assay with HCT-116 [1], 4.22 with MCF7 and 5.13 in the assay with HeLa [2].

As to `CN1CCN(c2ncc([N+](=O)[O-])c(Nc3c(C(=O)c4cccs4)[nH]c4cc(Cl)ccc34)n2)CC1`, the pIC50 in the assay on HEK293 is under 4.00; in the assay on MDA-MB-231, 5.30; in the assay on HCT-116 [1] it was 4.76; with MCF7 it was 4.86; with HeLa [2], 4.70. The inhibition in the assay listed under Sus scrofa is 47%.

For `O=C(c1ccc(Cl)cc1)c1[nH]c2cc(Cl)ccc2c1Nc1nc(N2CCOCC2)ncc1[N+](=O)[O-]`, the pIC50 with MDA-MB-231 is under 4.00; in the assay on HCT-116 [1] it was under 4.00; in the assay with MCF7, 4.08; with HeLa [2] it was under 4.00.

On to `COc1ccc(C(=O)c2[nH]c3cc(Cl)ccc3c2Nc2nc(N3CCOCC3)ncc2[N+](=O)[O-])cc1`, for which the pIC50 was under 4.00 with MDA-MB-231, 4.61 in the assay on HCT-116 [1], 4.46 in the assay on MCF7 and 4.33 with HeLa [2]. In the assay listed under Sus scrofa, this compound showed an inhibition of 14%.

In the case of `O=C(c1ccccc1)c1[nH]c2ccccc2c1Nc1nc(N2CCOCC2)ncc1[N+](=O)[O-]`, the pIC50 with MDA-MB-231 was 4.03; with HCT-116 [1], 4.25; with MCF7, 4.05; with HeLa [2], 4.08. Further, the inhibition in the assay filed under Sus scrofa was 23%.

Consider `Cc1ccc2c(Nc3nc(N4CCOCC4)ncc3[N+](=O)[O-])c(C(=O)c3ccc(Br)cc3)[nH]c2c1`, for which the pIC50 with MDA-MB-231, in the assay with HCT-116 [1], in the assay on MCF7 and in the assay on HeLa [2] was under 4.00 each time.

In the case of `CCOC(=O)n1c(C(=O)c2ccc(OC)cc2)c(Nc2nc(N3CCOCC3)ncc2[N+](=O)[O-])c2ccccc21`, the pIC50 with HEK293 was under 4.00; in the assay on MDA-MB-231, 5.52; with HCT-116 [1], 5.52; in the assay with MCF7, 5.67; in the assay on HeLa [2] it was 5.26. Further, the inhibition in the assay listed under Sus scrofa was 19%. Moreover, the “Ratio IC50” value in the assay on HCT-116 [4] came to 2.

Regarding `O=C(c1ccc(Br)cc1)c1[nH]c2ccccc2c1Nc1nc(N2CCOCC2)ncc1[N+](=O)[O-]`, the pIC50 was 4.47 in the assay with MDA-MB-231, 4.48 with HCT-116 [1], 4.07 with MCF7 and 4.27 in the assay with HeLa [2].

In the case of `O=C(c1cccc(Br)c1)c1[nH]c2ccccc2c1Nc1nc(N2CCOCC2)ncc1[N+](=O)[O-]`, the Activity in the assay with HeLa [5] is given as 53.32%; in the assay on HeLa [6] it was 12.63%; in the assay with HeLa [7], 5.02%; in the assay on HeLa [8], 88.58%; in the assay with HeLa [9] it was 26.35%; in the assay with HeLa [10], 6.4%. Besides, the Activity is 34.05% with HeLa [11], “Dose-dependent effect” in the assay on HeLa [12], 15.31% in the assay on HeLa [13] and 58.34% in the assay with HeLa [14]. For the same compound, the pIC50 in the assay on HEK293 was 5.00; in the assay with MDA-MB-231 it was 5.03; in the assay on HCT-116 [1], 4.94; with MCF7 it was 5.85; with HeLa [2] it was 5.60. The compound also displayed an inhibition in the assay filed under Sus scrofa of 36%.

The record behind these values is ChEMBL document CHEMBL4020719, “Synthesis and biological evaluation of novel indole-pyrimidine hybrids bearing morpholine and thiomorpholine moieties” (Eur J Med Chem, 2017).
